Measurements taken from ChEMBL document CHEMBL1777683, “Identification of plasmepsin inhibitors as selective anti-malarial agents using ligand based drug design” (Bioorg Med Chem Lett, 2011).

Key:
[1] = system: Plasmodium falciparum; experiment: Antimalarial activity against Plasmodium falciparum 3D7 infected in RBC assessed as parasite-specific lactate dehydrogenase release; format: functional, organism-based
[2] = biological target: Plasmepsin II (Plasmodium falciparum, UniProt P46925); experiment: Inhibition of Plasmodium falciparum plasmepsin 2 using DABCYL-Glu-Arg-Nle-Phe-Leu- Ser-Phe-Pro-EDANS fluorogenic substrate by fluorogenic assay
Sequence of Plasmepsin II (P46925 whole entry): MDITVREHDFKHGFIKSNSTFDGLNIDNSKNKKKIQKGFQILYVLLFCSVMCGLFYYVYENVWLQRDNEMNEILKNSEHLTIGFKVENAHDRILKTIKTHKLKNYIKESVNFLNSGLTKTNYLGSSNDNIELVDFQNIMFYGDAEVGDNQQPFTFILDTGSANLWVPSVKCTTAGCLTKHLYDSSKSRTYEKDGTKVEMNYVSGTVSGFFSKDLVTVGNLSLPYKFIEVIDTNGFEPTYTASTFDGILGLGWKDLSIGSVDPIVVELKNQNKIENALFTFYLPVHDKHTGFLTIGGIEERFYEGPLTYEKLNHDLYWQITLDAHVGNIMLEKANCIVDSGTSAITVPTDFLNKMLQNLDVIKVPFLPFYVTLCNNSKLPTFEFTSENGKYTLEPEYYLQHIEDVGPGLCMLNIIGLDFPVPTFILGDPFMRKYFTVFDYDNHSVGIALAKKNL

[3] = Inhibition of Plasmodium falciparum plasmepsin 4 using DABCYL-Glu-Arg-Nle-Phe-Leu- Ser-Phe-Pro-EDANS fluorogenic substrate by fluorogenic assay
[4] = biological target: Cathepsin D (Homo sapiens) (UniProt P07339); experiment: Inhibition of human liver Cathepsin D using KPIEF(nF)RL chromogenic substrate at 5 uM by absorbance assay
Sequence of Cathepsin D (Homo sapiens) (P07339 65-162 limits assumed): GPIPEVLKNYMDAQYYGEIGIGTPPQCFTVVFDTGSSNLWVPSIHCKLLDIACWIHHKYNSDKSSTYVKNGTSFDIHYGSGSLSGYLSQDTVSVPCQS
Sequence of Cathepsin D (Homo sapiens) (P07339 169-412 limits assumed): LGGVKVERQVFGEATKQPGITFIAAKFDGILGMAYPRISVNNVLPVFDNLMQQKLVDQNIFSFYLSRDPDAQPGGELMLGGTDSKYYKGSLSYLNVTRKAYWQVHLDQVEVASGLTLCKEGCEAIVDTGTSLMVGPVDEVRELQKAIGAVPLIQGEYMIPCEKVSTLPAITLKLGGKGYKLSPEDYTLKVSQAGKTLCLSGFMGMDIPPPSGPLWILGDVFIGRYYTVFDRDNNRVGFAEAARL

[5] = system: Plasmodium falciparum; experiment: Antimalarial activity against Plasmodium falciparum 3D7 infected in RBC assessed as parasite-specific lactate dehydrogenase release at 16 uM; format: functional
[6] = system: Plasmodium falciparum; experiment: Inhibition of Plasmodium falciparum plasmepsin 4 using DABCYL-Glu-Arg-Nle-Phe-Leu- Ser-Phe-Pro-EDANS fluorogenic substrate at 5 uM by fluorogenic assay
[7] = biological target: Plasmepsin II (Plasmodium falciparum) (UniProt P46925); experiment: Inhibition of Plasmodium falciparum plasmepsin 2 using DABCYL-Glu-Arg-Nle-Phe-Leu- Ser-Phe-Pro-EDANS fluorogenic substrate at 5 uM by fluorogenic assay
Sequence of Plasmepsin II (Plasmodium falciparum) (P46925 125-453 limits assumed): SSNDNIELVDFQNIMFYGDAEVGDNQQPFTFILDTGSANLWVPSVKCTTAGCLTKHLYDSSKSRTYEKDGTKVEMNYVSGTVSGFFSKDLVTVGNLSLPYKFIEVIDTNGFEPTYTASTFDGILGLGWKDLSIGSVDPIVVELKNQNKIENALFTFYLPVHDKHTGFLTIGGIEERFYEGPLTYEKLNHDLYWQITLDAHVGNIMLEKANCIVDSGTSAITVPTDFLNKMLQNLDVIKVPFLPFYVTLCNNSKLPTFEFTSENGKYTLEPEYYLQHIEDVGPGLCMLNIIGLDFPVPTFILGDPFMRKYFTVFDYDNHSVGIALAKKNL

| Compound | IC50 [1] [µM] | IC50 [2] [µM] | Ki [2] [µM] | IC50 [3] [µM] | inhibition [4] [%] | inhibition [6] [%] | inhibition [7] [%] | Ki [3] [µM] | inhibition at 16 µM [5] [%] |
| --- | --- | --- | --- | --- | --- | --- | --- | --- | --- |
| O=C(NCCNC(=O)/C(=C\c1ccco1)NC(=O)c1ccccc1)/C(=C/c1ccco1)NC(=O)c1ccccc1 | 12 |  |  |  |  |  |  |  |  |
| COc1ccc(Cl)cc1NC(=O)c1sc2nc(-c3ccccc3)cc(-c3ccc(OCc4ccccc4)c(OC)c3)c2c1N | 2.3 | 2.3 | 1.6 | 6.2 | 12 |  |  | 5.4 |  |
| COc1ccc(-c2cc(-c3ccc(Cl)cc3)c(C#N)c(S[C@H](C)C(=O)Nc3ccc(C(C)=O)cc3)n2)cc1 |  |  |  |  |  |  |  |  | 32 |
| CC(C)CCNC(=O)[C@H](c1c[nH]c2ccccc12)N(C(=O)c1snc(C(N)=O)c1N)c1ccc2c(c1)OCO2 | 2.21 | 21.3 | 10.6 | 26 | 12 |  |  | 20 |  |
| CCN(CC)c1ccc(/C=N/NC(=O)CSc2nc3ccccc3n2Cc2ccc(Cl)cc2)cc1 | 2.18 | 2.4 | 1.2 | 0.62 | 10 |  |  | 0.47 |  |
| COc1ccc([C@@H](C(=O)NC2CCCC2)N(C(=O)c2snc(C(N)=O)c2N)c2ccc(OC)cc2)cc1 | 25 |  |  |  |  |  |  |  |  |
| CCOc1ccc(N(C(=O)c2snc(C(=O)NC3CCCCC3)c2N)[C@H](C(=O)NCCc2ccccc2)c2ccc(OC)cc2)cc1 | 0.35 |  |  |  | 20 | 20 | 30 |  |  |

Further compounds by falling IC50 [1], results first:

| IC50 [1] [µM] | IC50 [2] [µM] | Ki [2] [µM] | IC50 [3] [µM] | inhibition [4] [%] | inhibition [6] [%] | inhibition [7] [%] | Compound | Ki [3] [µM] | inhibition at 16 µM [5] [%] |
| --- | --- | --- | --- | --- | --- | --- | --- | --- | --- |
| 40 |  |  |  |  |  |  | CCOc1cccc(-c2cc(C(=O)N/N=C/c3ccc(OC)c(CN4CCSCC4)c3)c3ccccc3n2)c1 |  |  |
| 24 |  |  |  |  |  |  | CCCCOc1ccc(-c2cc(C(=O)N/N=C(\C=C\c3ccc4c(c3)OCO4)c3ccc(OC)cc3)c3ccccc3n2)cc1 |  |  |
| 9.6 | 7 | 4.6 | 6.3 | 35 |  |  | Cc1ccc(NC(=S)N(Cc2ccc3c(c2)OCO3)Cc2cc3cccc(C)c3[nH]c2=O)cc1 | 5.5 |  |
| 5.24 | 10 | 7 | 9 | 35 |  |  | COC(=O)CCC(=O)N(CCN(Cc1ccccc1)C(=O)CCC(=O)OC)Cc1ccccc1 |  |  |
| 5 | 6.1 | 4 | 3.7 | 15 |  |  | CCOC(=O)c1ccc(/N=C2\S/C(=C\c3ccc(C(C)(C)C)cc3)C(=O)N2c2ccc(C(=O)OCC)cc2)cc1 | 3.23 |  |
| 4.5 | 2.5 | 2 | 2.6 | 20 |  |  | CCN(CC)C(=O)c1sc(NC(=O)c2cc(-c3cccc(C)c3)nc3ccccc23)c(C(=O)OC)c1C | 2.5 |  |
| 3.7 | 11.5 | 8 | 15 | 12 |  |  | CCCCOc1cccc(-c2cc(C(=O)N/N=C(\C)c3cccc(NC(=O)C(C)(C)C)c3)c3ccccc3n2)c1 | 13 |  |
| 1.24 |  |  |  |  |  |  | CCCCc1ccc(-c2cc(C(=O)Nc3scc(-c4cccnc4)c3C(=O)OC)c3cc(Br)ccc3n2)cc1 |  |  |
